Source: patent US8648116B2, “Derivatives of N-(arylamino) sulfonamides including polymorphs as inhibitors of MEK as well as compositions, methods of use and methods for preparing the same” (Ardea Biosciences, Inc., priority 2005, dated 2014)
Values joined by “and” are separate entries in the source; they are usually repeats but may differ in a detail not shown here. Identical values can stand only once. Like-named read-outs stand apart in the source and are kept apart here.

Key:
[1] = tested on: A431 epidermoid cells; test: Anchorage-independent growth inhibition (MTS, 7 days, non-binding plates); type: cell-based; details: Homo sapiens, A-431, 168 h, BRAF Normal, read-out: Anchorage-Independent GI50 (nM ± sd)
[2] = tested on: pERK in Colo205 tumors; test: MEK inhibition (pERK, Western blot) against plasma concentration, tumor; type: in vivo, nu/nu mice
Description: Human tumors were implanted in nu/nu mice. Compound A was administered orally for 14 days once tumors were approximately 100 mm^3 in size. Tumor growth inhibition (TGI) was determined after 14 days of treatment as the reduction in the size of tumors in treated groups versus vehicle controls. The time to endpoint (TTE) was calculated as the time for the tumor to reach the specified endpoint volume or the last day of the study, whichever came first. Treatment outcome was determined from percent tumor growth delay (% TGD), defined as the percent increase in median TTE of treated versus vehicle-treated control mice. Animals were also monitored for regression responses. Levels of pERK in tumors and brain were determined by Western blots and correlated with plasma levels of Compound A for the pharmacodynamic/pharmacokinetic study. A number of tumor models were evaluated with different doses and dosing regimens. […] The effect of different dosing regimens was evaluated in A375 xenografts.
Female nu/nu mice implanted with Colo205 tumor cells were given a single dose of vehicle or Compound A at 2.5, 5, 10, or 25 mg/kg. Compound levels were determined in plasma samples and pERK levels were determined in tumor and brain samples collected at 2, 6, 12, and 24 hr post-dose. […]

[3] = tested on: orthotopic HT-29 human colorectal adenocarcinoma; test: Growth response of orthotopic HT-29 colon tumors in nude mice; type: in vivo, BALB/c nu/nu mice; details: for Caecum Weight / Tumour Weight: individual animals; for Average Caecum Weight / Average Tumour Weight: mice surviving to final day
Description: Female BALB/c nu/nu mice (University of Adelaide, Waite Campus, SA, Australia), aged 7-12 weeks, with a body weight range: of 16.58-25.39 g (mean 21.52 g) were used for the study. The mice were divided into 6 Study groups (4 treatment groups and 2 control groups) as follows: • Number of Mice per Group: 10 in Groups 1 to 5 inclusive • 9 in ‘Take-Rate’ Control Group (Group 6)
HT-29 human colorectal adenocarcinoma cells (Passage 4 from working stock VP-Stock 325) were cultured in RPMI1640 cell culture medium, which was supplemented with 10% FBS and penicillin-streptomycin (501 U/mL final concentration). The cells were harvested by trypsinisation, washed twice in HBSS and counted. The cells were then resuspended in HESS and adjusted to a final volume containing 2×10^8 cells/mL. Prior to inoculation, the incision site was liberally swabbed with alcohol and an incision made through the abdominal wall to expose the caecum wall. The needle was introduced through the surface of the caecum wall where 5 μL of cells (1×10^6 cells) were discharged.
A stock solution was prepared weekly and stored at 4° C. Dosing solutions were prepared on each day of administration.
Caecum and tumor wet weight were measured when each were excised post-mortem on the termination day of the study. At the termination of the study, the caecum was excised from all mice in each study group and weighed with the tumors intact. The tumors were then excised from the caecum and weighed.
A two-sample t-test was used to determine the significance in body weight change within a treatment group between Day 0 and the termination day of the study. […] In these groups, a two-sample t-test was used to determine the significance in body weight change within a treatment group between Day 0 and the final treatment day of the study, and between the last treatment day and the termination day of the study.
A One-Way Analysis of Variance (ANOVA) (All Pairwise Multiple Comparison Procedure and Multiple Comparison versus Control Group) was performed on the caecum weight and tumor weight data at the end of the study.

[4] = tested on: Complete Freund's Adjuvant induced arthritis; test: Rat adjuvant arthritis inflammation assay; type: in vivo, rats; details: 20 mg/kg orally for 5 days
Description: In the rat adjuvant induced arthritis model, Complete Freund's Adjuvant (CFA) is injected into the right hind paw of rats to induce pathologies similar to rheumatoid arthritis in humans. Compound A was administered orally for 5 consecutive days at 2, 6, and 20 mg/kg. Dexamethasone at 5 m g/kg was also administered orally for 5 days. Enbrel at 10 mg/kg was administered by subcutaneous injection on days 1 and 4. CFA was injected into the right hind paw one hour after the first dose on day 1. […] Polyarthritis was scored as the presence of swelling in front paws, tail, nose or ear.

[5] = tested on: HT29 colon cells; test: Anchorage-dependent growth inhibition (CellTiterGlo/ATP, 48 hr)
Description: Cells were maintained at 37° C., 5% CO2, and 100% humidity. Colo205 cells were maintained in RPMI supplemented with 10% fetal bovine serum, glutamine (2 mM), penicillin (100 U/ml), and streptomycin (100 μg/ml). For growth inhibition experiments, cells were plated in white 384-well microplates at 1000 cells/20 dwell. After 24 hr, 5 μl of a 5× drug stock solution was added. All drugs were initially prepared as 200× stocks in DMSO, such that final DMSO concentration was 0.5%. Cells were incubated for 48 hr at 37° C. and ATP levels were determined using CellTiterGlo (Promega, Madison, Wis.). […] Non-linear curve-fitting was performed using GraphPad Prism 4 (GraphPad Software, San Diego, Calif.).

[6] = tested on: A375 cells; test: Cytotoxic lysis by adenylate kinase (AK) release, 48 hr; type: cell-based, human
Description: Cell supernatants were analyzed for cytotoxic lysis by measuring adenylate kinase (AK) release. […] The lack of AK release was confirmed for all cell lines tested.
100% viability (ATP assay) was determined in vehicle only control wells.

[7] = tested on: A375 cells; test: Evaluation of cell cycle arrest (propidium iodide, flow cytometry); type: cell-based, human; details: 24 hr
Description: A375 cells were plated in 96-well microplates at 10,000 cells/200 μl/well. […] After another 24 hr, cells were trypsinized, fixed in 200 μl Prefer (Anatech, Battle Creek, Mich.), and stored at 4° C. overnight. Cells were then rinsed in PBS, permeabilized and stained in 0.1% Triton X-100, 200 μg/ml DNase-free RNase, and […] propidium iodide (Molecular Probes, Sunnyvale, Calif.), and analyzed on the Guava PCA-96 (Guava Technologies, Foster City, Calif.). Data were analyzed using ModFit LT (version 3.0, Verity, Topsham, Me.).

[8] = tested on: gastric carcinoma Hs746t cells; test: Cell proliferation assay (CellTiterGlo, 48 hours); type: cell-based, human; details: 48 hours treatment
Description: Human gastric carcinoma Hs746t cells were obtained from ATCC (Manassas, Va.). […] For cell proliferation experiments, cells were plated in white 96-well plates with clear bases at 3000 cells/100 μl/well.

COc1cc(F)c(F)c(Nc2ccc(I)cc2F)c1NS(=O)(=O)C1(C[C@H](O)CO)CC1 [Compound A]
GI50 [1]: 65 ± 19 nM
pERK formation in tumors ([2]; Colo205 xenografts, pharmacodynamic/pharmacokinetic study): inhibition of pERK formation
EC50 ([2]; Mus musculus, COLO 205, plasma concentration, Colo205-bearing nu/nu mice, single dose 2.5-25 mg/kg, non-linear regression): 73 nM
Survival Number (No. Alive/Total) ([3]; Compound A 2 mg/kg p.o. once daily Day 0 to 9): 4/10
Caecum Weight ([3]; Compound A 2 mg/kg, 2 mg/kg): 0.347 g and 0.170 g and 0.150 g and 0.205 g and 0.377 g and 0.233 g and 0.251 g and 0.322 g
Tumour Weight ([3]; Compound A 2 mg/kg, 2 mg/kg): 0.001 g (3×) and 0.000 g and 0.005 g (2×) and 0.122 g and 0.003 g
Average Caecum Weight ([3]; Compound A 2 mg/kg): 0.296 g
Average Tumour Weight ([3]; Compound A 2 mg/kg): 0.033 g
Caecum Weight ([3]; Compound A 10 mg/kg, 10 mg/kg): 0.287 g and 0.198 g and 0.258 g and 0.111 g and 0.263 g and 0.237 g and 0.234 g and 0.289 g and 0.320 g and 0.251 g
Tumour Weight ([3]; Compound A 10 mg/kg, 10 mg/kg): 0.000 g (3×) and 0.257 g and 0.008 g and 0.422 g and 0.001 g and 0.014 g and 0.004 g and 0.100 g
Average Caecum Weight ([3]; Compound A 10 mg/kg): 0.244 g
Average Tumour Weight ([3]; Compound A 10 mg/kg): 0.078 g
Caecum Weight ([3]; Compound A 50 mg/kg, 50 mg/kg): 0.230 g and 0.254 g and 0.238 g and 0.201 g and 0.337 g and 0.169 g and 0.328 g and 0.217 g and 0.312 g and 0.463 g
Tumour Weight ([3]; Compound A 50 mg/kg, 50 mg/kg): 0.002 g (2×) and 0.000 g and 0.004 g and 0.166 g and 0.655 g and 0.001 g (3×) and 0.026 g
Average Caecum Weight ([3]; Compound A 50 mg/kg): 0.290 g
Average Tumour Weight ([3]; Compound A 50 mg/kg): 0.122 g
animals without front paw swelling (polyarthritis scoring) [4]: 2 of 6
animals without swelling in the tail (polyarthritis scoring) [4]: 4 of 6
inhibition of paw swelling ([4]; acute and delayed phases): significant reduction in swelling
GI50 ([5]; Homo sapiens, HT-29, 48 h, read-out: Anchorage-Dependent GI50 (nM ± sd)): 70 ± 12 nM

COc1cc(F)c(F)c(Nc2ccc(I)cc2F)c1NS(=O)(=O)C1(C[C@H](O)CO)CC1
AK, Cell killing, % Control ([6]; 1 uM): 4%
cytotoxic cell lysis (AK release) ([6]; 100% cell killing with 20 μM tamoxifen): lack of cytotoxic cell lysis
effect on cell cycle progression [7]: arrest in the G1 phase of the cell cycle
proliferation of Hs746t cells [8]: inhibits the proliferation
HT-29 tumor and caecum weight, trend ([3]; 10 mg/kg p.o.): reduction
average caecum and tumor weights vs Vehicle Control ([3]; 2, 10 and 50 mg/kg p.o.): no significant difference
GI50 ([5]; read-out: Mean GI50, HT29, 48 hr, ATP content, mean of at least three experiments): 70 nM
